From patent US11020398B2, “Amino-pyrrolopyrimidinone compounds and methods of use thereof” (ArQule, Inc., priority 2016, dated 2021)

Key:
[1] = molecular target: full-length activated BTK mutant C481S (Homo sapiens (Human), UniProt Q06187, C481S); assay: AlphaScreen assay, BTK mutant C481S; format: biochemical; settings: for inhibition at 10 µM: read-out: BTK-C481S % @ 10 uM, @ 10 uM
Description: (§1) The activated BTK was frozen in 50 μl aliquots (125-150 μg/ml).
(§2) BTK activity was assayed using a PLCγ2-derived biotinylated peptide substrate (biotin-[…]-OH) and AlphaScreen™ (Amplified Luminescent Proximity Homogeneous Assay) technology. The extent of peptide phosphorylation was determined by using acceptor beads conjugated to phosphotyrosine antibody that recognized the phosphorylated peptide and donor beads conjugated to streptavidin that binds to the biotin on the peptide. Excitation of the donor beads converted ambient oxygen to excited singlet oxygen which when in close proximity to acceptor beads, reacted with acceptor beads resulting in signal amplification.
(§3) Test inhibitors and controls were prepared in 10% DMSO at 10-fold the desired final concentration and added to each well of a reaction plate (Corning 96-well half-area solid white nonbinding surface plate) in a volume of 2.5 μl. […] The plate was incubated for 120 min at room temperature and the reaction stopped by the addition of 10 μl stop/detection mixture containing 35 mM EDTA, 50 ug/ml AlphaScreen™ Streptavidin Donor beads (final concentration is 500 ng/well) and AlphaScreen™ Phospho-tyrosine (P-Tyr-100) Acceptor beads (final concentration is 500 ng/well) under green light conditions. The plate was incubated overnight at room temperature in the dark and the plates read on the BMG PolarStar Omega ([…], Gain=4000). Data were archived and analyzed with a 4-parameter fit to generate IC50 values using the CDD Vault from Collaborative Drug Discovery.

[2] = molecular target: full-length activated BTK (wildtype) (Homo sapiens (Human), UniProt Q06187); assay: AlphaScreen assay, wild-type BTK; format: biochemical
full-length activated BTK (wildtype), sequence (Q06187 whole entry): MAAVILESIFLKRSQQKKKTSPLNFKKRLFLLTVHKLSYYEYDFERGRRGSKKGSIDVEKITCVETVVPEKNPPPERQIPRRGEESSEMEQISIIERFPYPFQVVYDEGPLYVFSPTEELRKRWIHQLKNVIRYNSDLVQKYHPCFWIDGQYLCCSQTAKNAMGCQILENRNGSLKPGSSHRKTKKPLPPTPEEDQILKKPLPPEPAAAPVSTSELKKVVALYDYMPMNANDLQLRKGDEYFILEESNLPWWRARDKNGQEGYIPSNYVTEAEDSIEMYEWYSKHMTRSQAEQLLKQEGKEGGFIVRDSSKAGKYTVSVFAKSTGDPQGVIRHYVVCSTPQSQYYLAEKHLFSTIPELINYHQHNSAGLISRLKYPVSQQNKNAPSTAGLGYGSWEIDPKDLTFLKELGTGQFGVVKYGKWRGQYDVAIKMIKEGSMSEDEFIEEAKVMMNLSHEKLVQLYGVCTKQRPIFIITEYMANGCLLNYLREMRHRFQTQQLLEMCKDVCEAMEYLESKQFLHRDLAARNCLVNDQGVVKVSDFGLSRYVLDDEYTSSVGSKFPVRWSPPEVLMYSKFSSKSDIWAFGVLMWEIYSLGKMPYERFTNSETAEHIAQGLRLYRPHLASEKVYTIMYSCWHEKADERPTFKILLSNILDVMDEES
Description: as §1, §2, §3

full-length activated BTK mutant C481S, sequence (Q06187 whole entry C481S): as the sequence (Q06187 whole entry) above, with C481S counted along it

Row | Structure (SMILES) | IC50 [1] [nM] | IC50 [2] [nM] | inhibition at 10 µM [1] [%] | inhibition at 10 µM ([2]; read-out: BTK % @ 10 uM, @ 10 uM) [%]
1 | COCCNC(=O)c1ccc(C(=O)c2c[nH]c3ncnc(N[C@@H]4CC[C@@H](CO)OC4)c23)c(Cl)c1 [Compound I-610, 3-chloro-4-(4-(((3R,6S)-6-(hydroxymethyl)tetrahydro-2H-pyran-3-yl)amino)-7H-pyrrolo[2,3-d]pyrimidine-5-carbonyl)-N-(2-methoxyethyl) benzamide] | 1150 | 491 |  | 
2 | O=C(c1ccc(C(=O)N2CCOCC2)cc1Cl)c1c[nH]c2ncnc(N[C@@H]3CC[C@@H](CO)OC3)c12 [Compound I-611, (3-chloro-4-(4-(((3R,6S)-6-(hydroxymethyl)tetrahydro-2H-pyran-3-yl)amino)-7H-pyrrolo[2,3-d]pyrimidine-5-carbonyl)phenyl)(morpholino) methanone] | 1510 | 1140 |  | 
3 | O=C(c1cc(C(=O)N2CCOCC2)ccc1Cl)c1c[nH]c2ncnc(N[C@@H]3CC[C@@H](CO)OC3)c12 [Compound I-612, (4-chloro-3-(4-(((3R,6S)-6-(hydroxymethyl)tetrahydro-2H-pyran-3-yl)amino)-7H-pyrrolo[2,3-d]pyrimidine-5-carbonyl)phenyl)(morpholino) methanone] |  | 1630 | 82 | 
4 | O=C(NCCN1CCOCC1)c1ccc(C(=O)c2c[nH]c3ncnc(N[C@@H]4CC[C@@H](CO)OC4)c23)c(Cl)c1 [Compound I-613, 3-chloro-4-(4-(((3R,6S)-6-(hydroxymethyl)tetrahydro-2H-pyran-3-yl)amino)-7H-pyrrolo[2,3-d]pyrimidine-5-carbonyl)-N-(2-morpholinoethyl) benzamide] |  |  | 64 | 87
5 | N#Cc1cccc(NC(=O)c2ccc(C(=O)c3c[nH]c4ncnc(N[C@@H]5CC[C@@H](CO)OC5)c34)c(Cl)c2)c1 [Compound I-614, 3-chloro-N-(3-cyanophenyl)-4-(4-(((3R,6S)-6-(hydroxymethyl)tetrahydro-2H-pyran-3-yl)amino)-7H-pyrrolo[2,3-d]pyrimidine-5-carbonyl)benzamide] | 228 | 142 |  | 

Further lines, results first:

Row | IC50 [1] [nM] | IC50 [2] [nM] | inhibition at 10 µM [1] [%] | inhibition at 10 µM ([2]; read-out: BTK % @ 10 uM, @ 10 uM) [%] | Structure (SMILES)
6 | 519 | 114 |  |  | O=C(Nc1cccnc1)Nc1ccc(Cl)c(C(=O)c2c[nH]c3ncnc(N[C@@H]4CC[C@@H](CO)OC4)c23)c1 [Compound I-609, 1-(4-chloro-3-(4-(((3R,6S)-6-(hydroxymethyl)tetrahydro-2H-pyran-3-yl)amino)-7H-pyrrolo[2,3-d]pyrimidine-5-carbonyl)phenyl)-3-(pyridin-3-yl)urea]
7 | 34.1 | 86.4 |  |  | O=C(c1ccc(C(=O)N2CCc3ccccc3C2)cc1Cl)c1c[nH]c2ncnc(N[C@@H]3CC[C@@H](CO)OC3)c12 [Compound I-615, (2-chloro-4-(1,2,3,4-tetrahydroisoquinoline-2-carbonyl)phenyl)(4-(((3R,6S)-6-(hydroxymethyl)tetrahydro-2H-pyran-3-yl)amino)-7H-pyrrolo[2,3-d]pyrimidin-5-yl)methanone]
8 | 506 | 116 |  |  | O=C(c1ccc(C(=O)N2CCN(c3ccccn3)CC2)cc1Cl)c1c[nH]c2ncnc(N[C@@H]3CC[C@@H](CO)OC3)c12 [Compound I-616, (3-chloro-4-(4-(((3R,6S)-6-(hydroxymethyl)tetrahydro-2H-pyran-3-yl)amino)-7H-pyrrolo[2,3-d]pyrimidine-5-carbonyl)phenyl)(4-(pyridin-2-yl)piperazin-1-yl)methanone]
9 | 48.7 | 16.2 |  |  | O=C(c1ccc(C(=O)N2CCCCC2)cc1Cl)c1c[nH]c2ncnc(N[C@@H]3CC[C@@H](CO)OC3)c12 [Compound I-617, (3-chloro-4-(4-(((3R,6S)-6-(hydroxymethyl)tetrahydro-2H-pyran-3-yl)amino)-7H-pyrrolo[2,3-d]pyrimidine-5-carbonyl)phenyl)(piperidin-1-yl)methanone]
10 | 399 | 87.4 |  |  | O=C(NCc1ccccc1)c1ccc(C(=O)c2c[nH]c3ncnc(N[C@@H]4CC[C@@H](CO)OC4)c23)c(Cl)c1 [Compound I-618, N-benzyl-3-chloro-4-(4-(((3R,6S)-6-(hydroxymethyl)tetrahydro-2H-pyran-3-yl)amino)-7H-pyrrolo[2,3-d]pyrimidine-5-carbonyl)benzamide]
